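Where inhibition never reached the appropriate level, the endpoint shown equals the highest concentration tested. Otherwise, values were interpolated linearly from a five-concentration, 48-hour dose response in 96-well plates. At the GI50, growth is halved.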 Activity calls are given as the source filed them. No stated cut-off is given here; in the data, active = GI50 up to about 1.1 µM and inactive = higher. Residues, ends and D or L forms follow the SMILES beside them. *: point of attachment. Boc = CC(C)(C)OC(=O)*
Legend:
Test in all cases: NCI anticancer screen, dose series, 48 h
[1] = system: CAKI-1
[2] = system: NCI/ADR-RES
[3] = system: Malme-3M
[4] = system: A498
[5] = system: RPMI-8226
[6] = system: T47D
[7] = system: SF-295
[8] = system: COLO 205
[9] = system: SK-OV-3
[10] = system: NCI-H226
[11] = system: SK-MEL-5
[12] = system: NCI-H23
[13] = system: DU-145
[14] = system: TK-10
[15] = system: BT-549
[16] = system: MOLT-4
[17] = system: SW-620
[18] = system: SK-MEL-28
[19] = system: HCC 2998
[20] = system: HL-60

Measured: GI50

Nc1nc(N)c(Cn2ccnc2)c(O)n1
inactive: [1] > 100 µM | [2] > 100 µM | [3] > 100 µM | [4] > 100 µM | [5] > 100 µM | [6] > 100 µM | [7] > 100 µM | [8] > 100 µM | [9] > 100 µM | [10] > 100 µM | [11] > 100 µM | [12] > 100 µM | [13] > 100 µM | [14] > 100 µM | [15] > 100 µM

COc1cc(Nc2nc3c(N)cc(C(F)(F)F)cc3nc2-c2ccccc2)cc(OC)c1OC
inactive: [1] 45.4 µM | [2] > 53.2 µM | [16] > 100 µM | [3] 41.1 µM | [5] > 100 µM | [17] > 90.4 µM | [6] 14.1 µM | [7] 16.6 µM | [8] 99.3 µM | [9] 42.5 µM | [10] 61.1 µM | [18] 57 µM | [11] 19.1 µM | [12] 70.3 µM | [13] > 100 µM | [19] > 100 µM | [20] > 100 µM | [14] 29.2 µM | [15] 35.5 µM

Cc1nc2ccccc2c(=O)n1-c1n[nH]c2ccccc12
inactive: [1] > 100 µM | [2] > 100 µM | [16] > 100 µM | [3] > 100 µM | [4] > 100 µM | [5] > 100 µM | [17] > 100 µM | [6] > 100 µM | [7] > 100 µM | [8] > 100 µM | [10] 80.5 µM | [18] > 100 µM | [11] > 100 µM | [12] > 100 µM | [13] > 100 µM | [19] > 100 µM | [14] > 100 µM | [15] > 100 µM

Cc1nc2c(=O)n(-c3ccccc3)c(=O)n(-c3ccccc3)c2o1
inactive: [1] > 100 µM | [2] > 100 µM | [16] > 100 µM | [3] > 100 µM | [4] > 100 µM | [5] > 100 µM | [17] > 100 µM | [6] > 100 µM | [7] > 100 µM | [8] > 100 µM | [9] > 100 µM | [10] > 100 µM | [11] > 100 µM | [12] > 100 µM | [19] > 100 µM | [14] 58.3 µM | [15] > 100 µM

CNC(=O)OCc1cnc([N+](=O)[O-])n1C
inactive: [1] > 100 µM | [2] > 100 µM | [16] > 100 µM | [3] > 100 µM | [4] > 100 µM | [5] > 100 µM | [17] > 100 µM | [7] > 100 µM | [8] > 100 µM | [10] > 100 µM | [18] > 100 µM | [11] > 100 µM | [12] > 100 µM | [13] > 100 µM | [19] > 100 µM | [20] > 100 µM | [14] > 100 µM | [15] > 100 µM

c1ccc(-c2ccc(/N=N/N3CCCC3)cc2)cc1
inactive: [1] > 100 µM | [2] > 100 µM | [16] > 100 µM | [4] > 100 µM | [5] 22.8 µM | [17] > 100 µM | [6] > 100 µM | [7] > 100 µM | [8] > 100 µM | [9] > 100 µM | [10] > 100 µM | [11] > 100 µM | [12] > 100 µM | [13] > 100 µM | [14] > 100 µM | [15] > 100 µM

O=c1cc(NCC2CCCCC2)[nH]c(=O)[nH]1
inactive: [2] > 100 µM | [3] > 100 µM | [4] > 100 µM | [5] > 100 µM | [17] > 100 µM | [7] > 100 µM | [8] > 100 µM | [10] > 100 µM | [18] > 100 µM | [11] > 100 µM | [12] > 100 µM | [13] > 100 µM | [19] > 100 µM | [20] > 100 µM | [14] > 100 µM | [15] > 100 µM

[N-]=[N+]=Nc1c(N2CCOCC2)c(Cl)nc2ccccc12
inactive: [1] 60.5 µM | [2] 26.4 µM | [16] 65.2 µM | [3] 41.5 µM | [4] 47.9 µM | [5] 74 µM | [17] 72.3 µM | [6] 65.6 µM | [7] 60.5 µM | [8] 33.5 µM | [9] > 100 µM | [10] 30.3 µM | [18] 59.8 µM | [11] 20.7 µM | [12] 30.7 µM | [19] 92.7 µM | [20] 66.1 µM | [14] 61.2 µM | [15] 25.4 µM

c1ccc2c(c1)ccc1nc3ccccn3c12
inactive: [2] > 100 µM | [16] > 100 µM | [3] > 100 µM | [5] > 100 µM | [17] > 100 µM | [6] > 100 µM | [7] > 100 µM | [8] > 100 µM | [9] 35.2 µM | [10] > 100 µM | [18] > 100 µM | [11] 89.7 µM | [12] > 100 µM | [13] > 100 µM | [19] > 100 µM | [20] > 100 µM | [14] > 100 µM | [15] > 100 µM

NNC(=O)CC(=O)Nc1ccc(C(=O)O)cc1
inactive: [1] > 100 µM | [2] > 100 µM | [16] > 100 µM | [3] > 100 µM | [5] > 100 µM | [17] > 100 µM | [6] > 100 µM | [7] > 100 µM | [8] > 100 µM | [9] > 100 µM | [10] > 100 µM | [11] > 100 µM | [12] > 100 µM | [13] > 100 µM | [20] > 100 µM | [14] > 100 µM | [15] > 100 µM

CCOc1ccc(N/C(=C(/C(Cl)=C(/Cl)N2CCCCC2)[N+](=O)[O-])n2nnc3ccccc32)cc1
inactive: [1] 9.23 µM | [2] 19.3 µM | [16] 5.27 µM | [3] 21.7 µM | [4] 18.3 µM | [5] 14.7 µM | [6] 17.3 µM | [7] 22.4 µM | [8] 20.6 µM | [9] 28.9 µM | [10] 27.9 µM | [18] 18.5 µM | [11] 15.6 µM | [12] 15.3 µM | [13] 19.2 µM | [19] 21 µM | [14] 32.8 µM | [15] 17.7 µM

Cc1cc(NS(=O)(=O)c2ccc(NC(=O)c3cccc4c(NNc5ccc(S(N)(=O)=O)cc5)c5ccccc5nc34)cc2)no1
inactive: [1] > 100 µM | [2] > 100 µM | [16] 31 µM | [3] 45.9 µM | [5] 43.4 µM | [17] 37.2 µM | [6] 26 µM | [7] 44.4 µM | [8] 45.1 µM | [9] 36.3 µM | [10] 34 µM | [18] 35.2 µM | [11] 39.5 µM | [12] 64.7 µM | [13] 86.5 µM | [19] 27.3 µM | [20] 31 µM | [14] 83.2 µM | [15] 61.5 µM

Cc1ccc(N(Cc2ccccc2)Cc2ccccc2)cc1
inactive: [1] 47.9 µM | [2] > 100 µM | [16] 23.8 µM | [3] 17 µM | [4] 61.4 µM | [5] 18.5 µM | [17] 46.3 µM | [6] 30.9 µM | [7] 35.1 µM | [8] 24.3 µM | [9] > 100 µM | [10] > 100 µM | [18] 54.2 µM | [11] 32.1 µM | [12] > 100 µM | [13] > 100 µM | [20] 51.4 µM | [14] > 100 µM | [15] > 100 µM

COc1ccc(Cc2ccc3nc(O)cc(C)c3c2)cc1S(=O)(=O)O
inactive: [1] > 100 µM | [2] > 100 µM | [16] > 100 µM | [3] > 100 µM | [4] > 100 µM | [5] > 100 µM | [17] > 100 µM | [6] > 100 µM | [7] > 100 µM | [8] > 100 µM | [9] > 100 µM | [10] > 100 µM | [18] > 100 µM | [11] > 100 µM | [12] > 100 µM | [13] > 100 µM | [20] > 100 µM | [14] > 100 µM | [15] > 100 µM

COC(=O)C(Cc1c[nH]c2ccccc12)NC(=O)C(Cc1c[nH]c2ccccc12)NC(=O)C(Cc1c[nH]c2ccccc12)NC(=O)C(Cc1c[nH]c2ccccc12)NC(=O)OC(C)(C)C (stereo not drawn) (Boc-WWWW-OMe; configuration not given here)
inactive: [1] 44.3 µM | [16] 3.85 µM | [3] 69.8 µM | [5] 3.95 µM | [17] 6.07 µM | [6] 19.7 µM | [10] 45.7 µM | [18] 18.2 µM | [11] 34.5 µM | [12] 25.1 µM | [13] 43.2 µM | [19] 20.5 µM | [20] 6.34 µM | [14] 34.7 µM | [15] 17.9 µM
